Measurements reported in paper doi:10.1101/2025.06.22.660908v1 (biorxiv, 2025).

Assays:
[1] = target: hERG (Homo sapiens, UniProt Q12809, species not given); experiment: hERG inhibition; assay type: cell-based
[2] = target: T1, Recombinant human TREM2 (Homo sapiens, UniProt Q9NZC2); experiment: microscale thermophoresis; assay type: binding
T1 sequence (Q9NZC2 19-174 limits assumed): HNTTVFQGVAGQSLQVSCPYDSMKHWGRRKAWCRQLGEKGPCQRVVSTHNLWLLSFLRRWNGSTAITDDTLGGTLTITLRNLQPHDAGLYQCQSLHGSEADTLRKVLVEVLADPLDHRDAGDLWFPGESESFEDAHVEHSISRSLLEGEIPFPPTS

Chain of hERG (Q12809 whole entry): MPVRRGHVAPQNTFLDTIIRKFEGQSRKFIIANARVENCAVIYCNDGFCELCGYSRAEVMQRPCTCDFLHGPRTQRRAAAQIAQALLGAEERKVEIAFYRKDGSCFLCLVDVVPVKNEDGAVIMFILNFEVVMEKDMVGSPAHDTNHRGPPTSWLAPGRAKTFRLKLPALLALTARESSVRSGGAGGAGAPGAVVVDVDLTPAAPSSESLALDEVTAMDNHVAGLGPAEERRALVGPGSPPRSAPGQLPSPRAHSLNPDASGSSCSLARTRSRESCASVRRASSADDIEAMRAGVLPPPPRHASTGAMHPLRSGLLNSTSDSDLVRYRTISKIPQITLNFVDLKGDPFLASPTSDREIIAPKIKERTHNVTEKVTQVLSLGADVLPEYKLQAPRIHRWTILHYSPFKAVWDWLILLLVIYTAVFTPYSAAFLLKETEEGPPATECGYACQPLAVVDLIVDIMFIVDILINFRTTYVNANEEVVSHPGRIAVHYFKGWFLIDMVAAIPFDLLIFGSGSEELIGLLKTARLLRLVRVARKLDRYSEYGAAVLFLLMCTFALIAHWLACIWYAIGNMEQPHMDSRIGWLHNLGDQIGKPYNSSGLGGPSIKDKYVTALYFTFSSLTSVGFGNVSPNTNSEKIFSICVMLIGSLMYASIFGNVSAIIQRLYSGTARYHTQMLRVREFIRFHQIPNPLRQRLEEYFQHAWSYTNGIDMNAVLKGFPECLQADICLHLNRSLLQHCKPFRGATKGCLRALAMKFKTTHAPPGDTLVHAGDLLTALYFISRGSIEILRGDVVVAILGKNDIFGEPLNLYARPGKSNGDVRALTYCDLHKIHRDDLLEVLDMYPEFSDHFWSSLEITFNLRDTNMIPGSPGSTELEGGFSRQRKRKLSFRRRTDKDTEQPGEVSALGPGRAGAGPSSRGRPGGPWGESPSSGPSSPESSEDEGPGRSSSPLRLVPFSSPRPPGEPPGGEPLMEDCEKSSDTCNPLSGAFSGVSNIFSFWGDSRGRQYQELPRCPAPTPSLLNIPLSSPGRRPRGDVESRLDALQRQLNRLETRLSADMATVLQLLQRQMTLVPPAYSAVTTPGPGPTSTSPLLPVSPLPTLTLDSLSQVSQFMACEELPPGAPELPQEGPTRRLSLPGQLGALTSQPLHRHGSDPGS

Row | Kd [2] [µM] | Structure (SMILES) | IC50 [1] [µM]
1 | – | Cc1nc2cc([C@H]3CCO[C@@H](c4cnn(C)c4)C3)nc(-c3ccc(Cl)cc3F)c2nc1C [VG-3927] | > 100
2 | 71.4 ± 4.06 | Cc1nc2cc(C3=CC(c4cnn(C)c4)OCC3)nc(-c3ccc(Cl)cc3F)c2nc1C (stereo not drawn) [C1] | > 100
